These results are taken from patent US10918648B2, “Estrogen receptor modulator combinations” (The Regents of the University of California, priority 2016, dated 2021).

Experiment [1] has as its system A549 NSCLC cells. Put plainly: NSCLC cell proliferation in vitro (MTS assay). The experiment is classed as cell-based, human. The note with it: 72 hours; for IC50: MTS assay. In general terms: Formazan colour is commonly taken as a measure of viable cells.
The subject of experiment [2] is MCF-7 breast cancer cells. Put plainly: MCF-7 breast cancer cell proliferation (BrdU ELISA) in presence of estradiol-17β. It counts as cell-based, human. The note with it: for IC50: Homo sapiens, MCF7, 72 hrs in the presence of 1 nM estradiol-17β, BrdU ELISA, read-out: IC50 for inhibition of cell proliferation, MCF-7; for inhibition of MCF-7 cell proliferation/survival: 1 μM or 50 μM antiestrogen in the presence of 1 nM estradiol, 1% DCC-FBS, FIG. 2A. The protocol: In experiments to assess potential proliferative effects of novel estrogen receptor ligands, human breast cancer cells were grown in phenol red-free, estrogen-free media with 1% dextran-coated charcoal-treated (DCC)-fetal bovine serum (FBS) for 48 hrs (15,44), then treated with either 1 μM or 50 μM doses of estrogen receptor antagonists in the presence of 1 nM estradiol-17β. Cell counts and viability tests (Trypan blue) were done every 24 hr for 3 days. After 72 hr, proliferation was assessed using the BrdU Cell proliferation ELISA (Roche). Cell numbers were also assessed initially by cell counts to confirm ELISA data. Each antiestrogen was tested at least in three different experiments.
In order to assess the antitumor action of novel estrogen receptor antagonists, we cultured human MCF-7 breast cancer cells with known expression of ERα. Cells were grown in 1% DCC-FBS for 48 hr and then treated with vehicle control or either 1 μM or 50 μM concentrations of antiestrogens JD 101-160 or the pure antiestrogen fulvestrant (FAS), all in the presence of 1 nM estradiol-170. […] Shown in FIG. 2A are results from MCF-7 cells grown in 1% DCC-FBS for 48 hr and then treated with vehicle control, 1 nM estradiol-170 and either 1 μM or 50 μM concentrations of antiestrogens JD 101-160 or the known pure antiestrogen fulvestrant (FAS) in the presence of 1 nM estradiol-170. Cell proliferation is expressed as percentage of that determined in the 1 nM estradiol-170-treated control group.
Cell proliferation assays: breast and lung tumor cells (between […]) were plated in 96 well plates using their respective medium with 10% FBS. For experiments using estradiol-17β, cells were rinsed with PBS and incubated with phenol redfree medium with 1% DCC-FBS for 48 hours as described before (24,25). Cells were then treated with different concentrations of SERDs ranging between 0.0001-100 μM. […] Cell counts and viability tests (Trypan blue) were done every 24 hr for 3 days. After 72 hr, proliferation was assessed with the MTS Assay CELLTITER 96® Aqueous Cell Proliferation Assay (Promega) or the Cell Proliferation ELISA, BrdU colorimetric assay (Roche). For the MTS, the absorbance of the formazan product was measured at 490 nanometer using the iMARK microplate reader from BIORAD. The BrdU ELISA assay is based on detection of BrdU incorporated into the genomic DNA of proliferating cells and an anti-BrdU antibody, the reaction product was quantified by measuring the absorbance at 370 nanometers using iMARK microplate reader from BIORAD. Cell numbers were also assessed initially by cell counts to confirm MTS/BrdU data. Experiments were done at least three times to confirm data.
(In general: Dividing cells build labelled thymidine or BrdU into new DNA.)

For experiment [3], the target named is T1, estrogen receptor-alpha (Homo sapiens, UniProt P03372).
T1 construct: MCF-7 breast cancer cells with high expression of ERα protein were treated with; endogenous in cells; host or cells: MCF-7 human breast cancer cells
T1 sequence (P03372 1-595): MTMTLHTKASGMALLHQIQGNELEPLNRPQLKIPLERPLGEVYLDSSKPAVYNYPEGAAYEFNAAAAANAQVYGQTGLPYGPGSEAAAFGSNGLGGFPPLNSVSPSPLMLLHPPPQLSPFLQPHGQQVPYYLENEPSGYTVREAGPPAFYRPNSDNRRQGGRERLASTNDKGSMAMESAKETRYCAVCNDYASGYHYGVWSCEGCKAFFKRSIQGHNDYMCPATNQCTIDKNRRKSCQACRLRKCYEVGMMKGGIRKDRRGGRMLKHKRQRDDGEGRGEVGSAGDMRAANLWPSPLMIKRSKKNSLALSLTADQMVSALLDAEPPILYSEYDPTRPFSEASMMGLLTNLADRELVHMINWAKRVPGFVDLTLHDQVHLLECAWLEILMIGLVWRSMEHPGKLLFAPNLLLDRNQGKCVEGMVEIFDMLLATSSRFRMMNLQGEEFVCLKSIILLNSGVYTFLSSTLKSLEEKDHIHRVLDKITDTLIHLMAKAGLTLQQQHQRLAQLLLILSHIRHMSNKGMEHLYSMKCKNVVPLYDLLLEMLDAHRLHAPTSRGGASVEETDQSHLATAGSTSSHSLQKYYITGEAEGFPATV
Kind of experiment: ER down-regulation, Western immunoblot of ERα protein in MCF-7 cells. The experiment is classed as cell-based. The note with it: for estrogen receptor-alpha expression (ERα protein levels, Western immunoblot): 1 μM or 10 μM, 48 hrs, in the presence of 1 nM estradiol, FIG. 3A. The protocol:
MCF-7 breast cancer cells were maintained in estrogen-free conditions 48 h before experiments as described above. Cells were then incubated with vehicle control or either 1 μM or 10 μM antiestrogens in the presence of 1 nM estradiol-1713 for 48 hrs. After lysis, total cell proteins were resolved by 4-15% SDS-PAGE, transferred to polyvinylidene difluoride membranes and probed with mouse monoclonal antibody directed against estrogen receptor-alpha (Assay Designs, #SRA1010). Membranes were stripped and re-probed with Ribosomal Protein L13A (Santa Cruz Biotechnology, C11) as a loading control (45).
Fulvestrant (Faslodex®) has been characterized as a selective ERα downregulator and a pure anti-estrogen. Fulvestrant inhibits the transcriptional response to estrogen stimulation and induces the degradation of estrogen receptor proteins (46,47). […] One problem with fulvestrant is that the drug requires intramuscular injection and may not achieve optimal antitumor effects due to the limited doses that can be administered by this drug delivery method. […] MCF-7 breast cancer cells with high expression of ERα protein were treated with estradiol-170 and either 1 μM or 10 μM concentrations of JD128 and JD140 for 48 hours. […] MCF-7 breast cancer cells were estrogen-deprived for 48 hrs, then treated with 1 nM estradiol-170 (E2) or antiestrogens JD128 (128) or JD140 (140) at 1 μM or 10 μM concentrations in the presence of 1 nM estradiol-170. After 48 hrs, PAGE and immunoblotting was performed with antibody directed to anti-ERα (SRA1010) and anti-RPL13A for a loading control.
ER down-regulation: To determine if selected compounds can down-regulate ER protein, we treated cells for 24-48 hrs in vitro with candidate compounds at varying doses. Then, cells were disrupted and prepared for PAGE and Western immunoblots using anti-ERα antibodies (see FIG. 6A). […] Those ERDs with optimal activity in down-regulating ER were investigated further in the chemistry laboratory to further refine and develop such agents. […]

[4] abbreviates: in the presence of 1 μM abemaciclib, 5% DCC-FBS, read-out: IC50 of SERD for inhibition of NSCLC cell proliferation, A549.
Where [5] appears, read: in the presence of 1 μM palbociclib, 5% DCC-FBS, read-out: IC50 of SERD for inhibition of NSCLC cell proliferation, A549.
Setting [6] is: Homo sapiens, A549, SERD alone, estrogen-depleted phenol red-free medium with 5% DCC-FBS, read-out: IC50 for inhibition of NSCLC cell proliferation, A549.

The structures appear in SMILES notation. Like-named read-outs stand apart in the source and are kept apart here.

With `C[C@]12C[C@H](Oc3ccc(N)cc3)[C@@H]3c4ccc(O)cc4CC[C@H]3[C@@H]1CC[C@@H]2O` [JD105, (8S,9S,11S,13S,14S,17S)-11-(4-aminophenoxy)-13-methyl-7,8,9,11,12,13,14,15,16,17-decahydro-6H-cyclopenta[a]phenanthrene-3,17-diol], the results for the IC50 in experiment [1] (setting [4]), in experiment [1] (setting [5]) and in experiment [2] were 410 nM, 2570 nM and 2140 nM, respectively. For the same compound, the “ER protein levels (Western immunoblot)” value in experiment [3] (24 hours, 10, 100 and 1000 nM, FIG. 6A) was “reduces ER protein levels”.
`C[C@]12C[C@H](Oc3ccc(N)c(C(F)(F)F)c3)[C@@H]3c4ccc(O)cc4CC[C@H]3[C@@H]1CC[C@@H]2O` [JD128, (8S,9S,11S,13S,14S,17S)-11-(4-Amino-3-(trifluoromethyl)phenoxy)-13-methyl-7,8,9,11,12,13,14,15,16,17-decahydro-6H-cyclopenta[a]phenanthrene-3,17-diol]: the IC50 in experiment [1] (setting [6]) is 1090 nM; in experiment [1] (setting [4]), 660 nM; in experiment [1] (setting [5]) it was 1340 nM; in experiment [2], 110 nM. The “inhibition of MCF-7 cell proliferation/survival” value in experiment [2] was “significant inhibition”. For the same compound, in experiment [3], the “estrogen receptor-alpha expression (ERα protein levels, Western immunoblot)” value was “greatest effect at suppressing estrogen receptor-alpha expression”.
With `C[C@]12C[C@H](Oc3ccc(NC(=O)CCCCN4CCCCC4)c(F)c3)[C@@H]3c4ccc(O)cc4CC[C@H]3[C@@H]1CC[C@@H]2O` [JD140, N-(4-(((8S,9S,11S,13S,14S,17S)-3,17-Dihydroxy-13-methyl-7,8,9,11,12,13,14,15,16,17-deca-hydro-6H-cyclopenta[a]phenanthren-11-yl)oxy)-2-fluorophenyl)-5-(piperidin-1-yl)pentan-amide], the “antiproliferative effects compared with fulvestrant” value in experiment [1] (A549, RPMI 1640 with 10% FBS, 1 μM or 10 μM, FIG. 8A) is on record as “significant antiproliferative effects”. The IC50 came out at 500 nM in experiment [1] (setting [6]), 640 nM in experiment [1] (setting [4]), 1220 nM in experiment [1] (setting [5]) and 320 nM in experiment [2]. Further, in experiment [2], the “inhibition of MCF-7 cell proliferation/survival” value is “significant inhibition”. Besides, in experiment [3], the “estrogen receptor-alpha expression (ERα protein levels, Western immunoblot)” value is reported as “down-regulated”.
